# Test results: US12109207B2, “Methods of using 4(1H)-quinolone derivatives” (Academia Sinica, priority 2019, dated 2024)
# Read-outs that look alike come from different tables or passages of the source.
# What was measured:
# H1975 cells = assay: Cell cytotoxicity assay (MTS), H1975; assay type: cell-based, human; details: Homo sapiens, read-out: IC50
# Experimental: (§1) Cells were seeded into the wells of 96-well plates (2000 cells/well). After an overnight culture, the cells were treated with different concentrations of a compound for 72 h. The CellTiter 96 AQueous one-solution cell proliferation assay (MTS) reagent was used to determine cytotoxicity. After treatment with a compound, 20 μL of the MTS reagent was added to each well and the plates were incubated at 37° C. for 1-4 h. Next, the absorbance at 490 nm of the culture medium in each well was determined using a VersaMax microplate reader (Molecular Devices).
# BT-549 = assay: Cell cytotoxicity assay (MTS), BT-549; assay type: cell-based; details: Homo sapiens, BT-549, 72 h
# Experimental: as §1
# Hs578t = assay: Cell cytotoxicity assay (MTS), Hs578t; assay type: cell-based; details: Homo sapiens, Hs-578T, 72 h
# Experimental: as §1
# MDA-MB-231 = assay: Cell cytotoxicity assay (MTS), MDA-MB-231; assay type: cell-based; details: Homo sapiens, MDA-MB-231, 72 h
# Experimental: as §1
# 37T = assay: Cell cytotoxicity assay (MTS), 37T; assay type: cell-based; details: Homo sapiens, 72 h
# Experimental: as §1
# 82T = assay: Cell cytotoxicity assay (MTS), 82T; assay type: cell-based; details: Homo sapiens, 72 h
# Experimental: as §1
# KB = assay: Cell cytotoxicity assay (MTS), KB; assay type: cell-based; details: Homo sapiens
# Experimental: as §1
# CCRF-CEM = assay: Cell cytotoxicity assay (MTS), CCRF-CEM; assay type: cell-based; details: Homo sapiens
# Experimental: as §1
# [1] = test system: human fibroblast (HFB) cells; assay: Cell cytotoxicity assay (MTS), human fibroblast; assay type: cell-based; details: normal cell line HFB
# Experimental: as §1
# KBtax = assay: Cell cytotoxicity assay (MTS), KBtax; assay type: cell-based, human; details: for IC50: Homo sapiens, KBtax, P-gp overexpressing, paclitaxel-selected KB subline
# Experimental: as §1
# KBvin = assay: Cell cytotoxicity assay (MTS), KBvin; assay type: cell-based, human; details: for IC50: Homo sapiens, KBvin, P-gp overexpressing, vincristine-selected KB subline; for RF, resistance factor (IC50 in resistant cell line/IC50 in parent cell line): KBvin vs KB
# Experimental: as §1
# CEM/VBL = assay: Cell cytotoxicity assay (MTS), CEM/VBL; assay type: cell-based, human; details: for RF, resistance factor (IC50 in resistant cell line/IC50 in parent cell line): CEM/VBL vs CCRF-CEM; for IC50: Homo sapiens, CEM/VBL, P-gp overexpressing, vinblastine-selected CCRF-CEM subline
# Experimental: as §1
# HDQP1 = assay: Cell cytotoxicity assay, HDQP1; assay type: cell-based; details: Homo sapiens, HDQ-P1; TNBC cell line HDQP1
# Experimental: as §1
# HDQP1/TAX = assay: Cell cytotoxicity assay, HDQP1/TAX; assay type: cell-based, human
# Experimental: as §1
# TNBC cell lines = assay: Cytotoxicity against triple-negative breast cancer cell lines; assay type: cell-based; details: Homo sapiens; BT-549, Hs578t, MDA-MB-231, 37T, 82T; 72 h MTS; read-out: IC50 values in different TNBC cell lines
# Experimental: as §1
# H1975 xenograft tumor = H1975 xenograft tumor model; assay type: in vivo, BALB/c nude mice; details: day 21
# Experimental: (§2) Using the H1975, MDA-MB-231, and KBtax xenograft models, tumors were established after inoculation into the right flanks of 6-week-old BALB/c nude mice (NARLabs, Taipei, Taiwan). After establishment of the tumors, vehicle and test compounds, which had been dissolved in DMSO, were each injected intraperitoneally into a separate group of animals three times per week. The body mass of each animal and tumor volumes were measured before each drug delivery. Tumor volume was calculated as 0.5W^2L (with W being the width of the smaller diameter and L being the length of the larger diameter). The animal experiment was carried out in accordance with the procedures and guidelines of the Institutional Animal Care and Use Committee, Institute of Biomedical Sciences, Academia Sinica.
# [2] = test system: MDA-MB-231 xenograft tumors; assay: MDA-MB-231 xenograft tumor model; assay type: in vivo, BALB/c nude mice; details: day 35
# Experimental: as §2
# KBtax xenograft tumors = assay: KBtax xenograft tumor model; assay type: in vivo, BALB/c nude mice
# Experimental: as §2
# Purified porcine tubulin = target: T1, Purified porcine tubulin (Sus scrofa, UniProt P02554); assay: In vitro tubulin polymerization assay; assay type: biochemical; details: 5 μM, A340 every min for 1 h at 37° C.
# T1 construct: purchased Cytoskeleton
# Experimental: Reagents from a Tubulin Polymerization Assay kit (Cytoskeleton) were used according to the manufacturer's instructions. Purified porcine tubulin (4 mg/mL; >99% purity) in G-PEM buffer (80 mM PIPES, 2 mM MgCl2, 0.5 mM EGTA, 1 mM GTP, 15% glycerol, pH 6.9) was mixed with each test compound in the wells of a 96-well plate. Then, the A340 value was recorded each minute for 1 h at 37° C. with the VersaMax microplate reader.
# P-gp = target: T2, P-gp (Homo sapiens, UniProt P08183); assay: Rhodamine efflux assay; assay type: cell-based; details: KBtax cells
# T2 construct: KBtax, KBvin, and CEM/VBL cancer cell lines, which overexpress P-gp; endogenous in cells; host or cells: KBtax cells (paclitaxel-selected subline of human KB)
# Experimental: KBtax cells (2.5×10^5/test) were collected and held on ice for 1 h in cold medium with […] rhodamine. Then, the cells were resuspended in medium warmed to 37° C. with one of the indicated compounds and incubated for 1 h in a water bath at the same temperature for efflux determination. The fluorescence intensities were quantified by FACSCanto flow cytometry.
# [3] = Body mass and serum biochemical markers, H1975 xenograft mice; assay type: in vivo, BALB/c nude mice; details: 4 or 8 mg/kg i.p. three times a week, end of experiment
# Experimental: as §2
# [4] = Body mass and serum biochemical markers, KBtax xenograft mice; assay type: in vivo, BALB/c nude mice
# Experimental: The body mass of each animal and tumor volumes were measured before each drug delivery. Tumor volume was calculated as 0.5W^2L (with W being the width of the smaller diameter and L being the length of the larger diameter). The animal experiment was carried out in accordance with the procedures and guidelines of the Institutional Animal Care and Use Committee, Institute of Biomedical Sciences, Academia Sinica.
# [5] = Body mass, MDA-MB-231 xenograft mice; assay type: in vivo, BALB/c nude mice; details: 4 or 8 mg/kg i.p. three times a week, 35 days
# Experimental: as §2
# P-gp expression = P-gp expression immunoblotting in KBtax cells; assay type: cell-based, human; details: 24 h
# Experimental: The cells were harvested and lysed in RIPA buffer (20 mM Tris-HCl, 150 mM NaCl, 1 mM Na2EDTA, 1% sodium deoxycholate, 1% IGEPAL CA-630, 0.1% SDS, pH 7.5) with protease inhibitors (Roche). Protein concentration was measured by the BCA assay. For immunoprecipitation, protein extracts were incubated with mag-beads-AS1712 or mag-beads-control at 4° C. overnight and then washed five times with PBS before immunoblotting. For immunoblotting, equivalent amounts of denatured proteins were separated through SDS-PAGE gels and then transferred to PVDF membranes (Millipore), which were each blocked with 5% nonfat milk in PBS and 0.1% Tween-20 (Sigma Aldrich) for 1 h. Then each membrane was incubated with a primary antibody overnight at 4° C., followed by incubation with a horseradish peroxidase conjugated secondary antibody for 1 h at room temperature. The signal was visualized by enhanced chemiluminescence detection, and images were acquired using a BioSpectrum Imaging System (UVP).
# [6] = target: colchicine site of tubulin (Sus scrofa, UniProt P02554); assay: Colchicine competition assay; assay type: binding; details: 37° C. for 1 h
# Experimental: Tubulin ([…]) and colchicine ([…]) were incubated with the various concentrations of AS1712, nocodazole, or vincristine in 80 mM PIPES, 2 mM MgCl2, 0.5 mM EGTA, pH 6.9 at 37° C. for 1 h. Fluorescence intensities (excitation and emission wavelengths at 365 and 435 nm, respectively) were recorded using an Infinite M200 plate reader (Tecan). Fluorescence values were normalized to the DMSO control.
# tubulin = tubulin (Sus scrofa, UniProt P02554); assay: Limited proteolysis assay; assay type: binding; details: 100 μM, 30 min at 30° C.
# Experimental: Tubulin (1 mg/mL) was incubated individually with a test compound for 30 min at 30° C. in 0.1 M morpholino ethanesulfonic acid, 1 mM MgCl2, 1 mM EGTA, pH 6.9, and then 25 μg/mL trypsin (TPCK-treated, Sigma Aldrich; 1:40 [w/w] trypsin/tubulin) was added to the solution for a 10-min digestion at 4° C. Samples were electrophoresed through a 15% SDS-PAGE gel and stained with Coomassie brilliant blue R250. The images were scanned and quantified using a BioSpectrum Imaging System (UVP).
# [7] = 4 mg/kg intraperitoneally three times a week
# [8] = 8 mg/kg intraperitoneally three times a week
# [9] = end of experiment, paclitaxel 15 mg/kg, RJ-LC-15-8 8 mg/kg, mean ± SEM
smiles,measurement,setting,value
"CCOC(=O)c1ccc2[nH]c(-c3cccc(F)c3)cc(=O)c2c1 [RJ-LC-15-8, Ethyl 2-(3-fluorophenyl)-4-oxo-1,4-dihydroquinoline-6-carboxylate]",IC50,"H1975 cells; NCI-H1975, 72 h, H1975 cells, 72 h, MTS",24 nM
same,IC50,"H1975 cells; NCI-H1975, Table 8, cell line not given, values match H1975",24 ± 1 nM
same,IC50,BT-549,21 ± 1.14 nM
same,IC50,Hs578t,34 ± 4.71 nM
same,IC50,MDA-MB-231,35 ± 1.45 nM
same,IC50,37T,22 ± 0.61 nM
same,IC50,82T,23 ± 1.27 nM
same,IC50,KB,34 ± 0.39 nM
same,IC50,CCRF-CEM,20 ± 1.71 nM
same,IC50,[1],> 10000 nM
same,IC50,KBtax,30 ± 1.35 nM
same,"RF, resistance factor (IC50 in resistant cell line/IC50 in parent cell line)",KBtax; KBtax vs KB,0.88
same,IC50,KBvin,35 ± 0.88 nM
same,"RF, resistance factor (IC50 in resistant cell line/IC50 in parent cell line)",KBvin,1
same,"RF, resistance factor (IC50 in resistant cell line/IC50 in parent cell line)",CEM/VBL,0.8
same,IC50,CEM/VBL,16 ± 0.52 nM
same,IC50,HDQP1,39 ± 0.49 nM
same,"RF, resistance factor (IC50 in resistant cell line/IC50 in parent cell line)",HDQP1/TAX; HDQP1/TAX vs HDQP1,1.02
same,IC50,"HDQP1/TAX; Homo sapiens, HDQ-P1, Paclitaxel-resistant subline",40 ± 3.26 nM
same,IC50,TNBC cell lines,21 to 35 nM
same,average tumor size,H1975 xenograft tumor; [7],1333±121.9 mm^3
same,average tumor size,H1975 xenograft tumor; [8],972.5±52.3 mm^3
same,average tumor size,[2]; [7],105±9.4 mm^3
same,average tumor size,[2]; [8],73.6±8.2 mm^3
same,TUNEL staining of the tumor tissues,"KBtax xenograft tumors; 8 mg/kg, 21 days",induced apoptosis
same,average tumor size,"KBtax xenograft tumors; after 21 days, i.p. three times a week, paclitaxel 15 mg/kg, RJ-LC-15-8 8 mg/kg",528.4±101.6 mm^3
same,tubulin polymerization,Purified porcine tubulin,direct inhibition
same,P-gp pump activity,P-gp,did not directly inhibit
same,body mass,[3],not affected
same,Body mass and serum biochemical markers for liver and kidney functions,"[4]; 8 mg/kg, end of the experiment",not negatively affected
same,ALT (IU/L),[4]; [9],64 ± 10.8 IU/L
same,AST(IU/L),[4]; [9],120.7 ± 27.5 IU/L
same,BUN,[4]; [9],18.2 ± 1 mg/dL
same,Cre,[4]; [9],0.26 ± 0.04 mg/dL
same,body mass,[5],did not affect
same,P-gp expression,P-gp expression,did not affect
"CC[C@]1(O)C[C@H]2CN(CCc3c([nH]c4ccccc34)[C@@](C(=O)OC)(c3cc4c(cc3OC)N(C=O)[C@H]3[C@@](O)(C(=O)OC)[C@H](OC(C)=O)[C@]5(CC)C=CCN6CC[C@]43[C@@H]65)C2)C1 [Vincristine, vincristine]",IC50,KB,5 ± 0.31 nM
same,IC50,CCRF-CEM,3 ± 0.04 nM
same,IC50,KBtax,49 ± 2.96 nM
same,IC50,KBvin,817 ± 47.4 nM
same,"RF, resistance factor (IC50 in resistant cell line/IC50 in parent cell line)",KBvin,163
same,"RF, resistance factor (IC50 in resistant cell line/IC50 in parent cell line)",CEM/VBL,440
same,IC50,CEM/VBL,1320 ± 20.6 nM
same,tubulin polymerization,Purified porcine tubulin,inhibit tubulin polymerization
same,colchicine fluorescence,[6],did not
same,tryptic pattern after limited trypsin digestion,tubulin,"decreased the amount of the βcol, αN, and αC fragments"
COC(=O)Nc1nc2ccc(C(=O)c3cccs3)cc2[nH]1 [nocodazole],tubulin polymerization,Purified porcine tubulin,inhibit tubulin polymerization
same,colchicine fluorescence,[6],decreased the colchicine fluorescence in a dose-dependent manner
same,tryptic pattern after limited trypsin digestion,tubulin,produced an increased amount of βcol
